These results are taken from publication PMC10154249, “Unique progerin C-terminal peptide ameliorates Hutchinson–Gilford progeria syndrome phenotype by rescuing BUBR1” (Nature Aging, 2023).

Test [1] deals with BUBR1 mRNA. The test is described as follows: BUBR1 mRNA stability assay with Actinomycin D. Format: cell-based, human. The following applies: HGADFN003 cells, UPCP together with Act D. The method, then: RNA preparation was performed as described. Total RNA was extracted using Trizol reagent (TaKaRa) following the manufacturer’s instructions. cDNA was generated with M-MLV reverse transcriptase (Promega, catalog no. M170B). Reverse transcription with PCR (RT-PCR) was performed with SYBR Green Real-Time PCR Master Mix (TaKaRa). RT-PCR was carried out on a QuantStudio 3 Real-Time-PCR Instrument (ABI). Data were analyzed and further processed in QuantStuido Design and Analysis Software and GraphPad Prism v.7. Fold change in gene expression over control samples was calculated using the 2^–ΔΔCt method, where β-actin Ct values were used as an internal control. The primer sequences for PCR, synthesized by Comate Bioscience, were as follows: […]

Test [2] deals with PTBP1–BUBR1 mRNA 3′-UTR. The test is described as follows: RIP assay of PTBP1 and BUBR1 mRNA 3′-UTR in HEK-293T cells. The following applies: for PTBP1 enrichment on BUBR1-3'UTR (2-ΔΔCt): Fig. 4n, PTBP1+progerin+UPCP, P=0.0491 vs PTBP1+progerin. Format: cell-based. The method, then: RIP and RNA pulldown assays were performed as previously described. The RIP experiment was carried out using the EZ-Magna RIP Kit (Millipore, catalog no. 17-701). The coprecipitated RNAs were extracted through Trizol reagent and detected by RT-PCR. The primer sequences for PCR, synthesized by Comate Bioscience, were as follows:
BUBR1-3′UTR_fwd (5′-[…]-3′) and BUBR1-3′UTR_rev (5′- […]-3′).

The test system of test [3] is HGADFN003 cells. Nature of the test: γH2AX-53BP1 foci in HGADFN003 cells. Format: cell-based, human. The method, then:
Immunofluorescence was performed as described previously. Cells were plated on cover slips in 12-well plates, left overnight before the treatment. Cells were fixed in 1% formaldehyde in culture medium for 10 min at 37 °C and permeabilized with 0.2% Triton X-100 in PBS for 10 min at room temperature. Cells were washed twice in PBS and blocked for 1 h with 5% BSA in PBS and then incubated with primary antibodies at 4 °C overnight, washed three times in PBS and incubated with secondary antibodies for 1 h at room temperature. Cell nuclei were counterstained with a 500 nM concentration of 4,6-diamidino-2-phenylindole (DAPI) (Sigma). Images were acquired by a fluorescence microscope (OLYMPUS FV-1000, Carl Zeiss LSM880 or Leica DMi8) and analyzed with software NIS-Elements AR v.5.0.1 (Nikon), FLUOVIEW v.4.2b (OLYMPUS), ZEN v.2.3 SP1 (Carl Zeiss) and Leica Application Suite X v.3.6.0.24 (Leica). Cells were quantified by investigators who were blinded to the identity of the analyzed cell.

Test [4] deals with muscle of Lmna^G609G/G609G mice. Nature of the test: Masson staining of muscle (fibrosis). The conditions noted are these: 13 weeks. Format: in vivo, mouse. How it is done:
For UPCP injection, 14-day-old Lmna^G609G/G609G mice were injected intraperitoneally with either PBS or UPCP (20 mg kg^–1, every other day) and wild-type mice were injected with PBS. […] Bodyweight and lifespan were monitored after UPCP treatment. The survival rate was analyzed by the Kaplan–Meier method. We only included mice that were of sufficient bodyweight at the start of the experiment, typically at least 80% of the average littermate weight of the same sex and genotype. All animals meeting criteria for inclusion were then divided randomly into three groups according to genotype (Lmna^+/+, Lmna^G609G/G609G-Mock and Lmna^G609G/G609G-UPCP).
For histological analyses, mice of the indicated genotypes were perfused with PBS, then with 4% paraformaldehyde (PFA). Whole organs were incubated in 4% PFA at 4 °C for 16 h. All samples were paraffin embedded and sectioning by Servicebio. Subsequently, the tissues were deparaffinized and rehydrated before hematoxylin-eosin (HE) or Masson staining or immunohistochemistry (IHC). HE staining was performed using an HE Kit (Absin, catalog no. abs9217), and Masson staining was performed using Masson’s Trichrome Stain Kit (Absin, catalog no. abs9347) according to the manufacturer’s instructions. The thickness of the layers or the areas of fibrosis in the tissues were calculated using ImageJ software by a blinded investigator. For IHC, the sections were completed by the Servicebio. The images were acquired by a microscope (Leica DMi8) and analyzed with Leica Application Suite X v.3.6.0.24 (Leica). For BubR1, cytoplasmic staining in cells was scored on the intensity of staining and the proportion of positive cells by a blinded investigator. The intensity of the staining was graded as 0 (negative, no color), 1 (low positive, light yellow), 2 (positive, brown yellow) or 3 (high positive, brown), and the number of positive cells was graded as 0 (<5%), 1 (5–25%), 2 (25–50%), 3 (51–75%) or 4 (>75%). The final score was defined as staining number score multiplied by staining color score. For lamin B1, p21 or IL-6, the proportion of positive cells was used to quantify the expression of protein in tissues by a blinded investigator.

Where “and” joins values, the source holds several entries; their conditions need not be identical. Identical values can stand only once.

For “H-YGRKKRRQRRRYNLRSRTVLCGTCGQPADKASASGSGAQSPQNCSIM-OH (cysteines drawn unpaired) [UPCP, unique progerin C-terminal peptide]”, in test [1], the “BUBR1 mRNA level with Act D” value was “mRNA levels of BUBR1 were significantly increased”. In addition, the “PTBP1 enrichment on BUBR1-3'UTR (2-ΔΔCt)” value in test [2] (replicate 1) was found to be 9.032; in test [2] (replicate 2), 10.1759; in test [2] (replicate 3), 11.8972. Further, in test [2] (RIP and RNA pulldown, HEK-293T with or without UPCP), the “binding of PTBP1 to BUBR1 mRNA 3ʹ-UTR” value is given as “promoted PTBP1 to bind”. In addition, the “γH2AX and 53BP1 positive cells (/Mock)” value in test [3] (HGADFN003, relative to Mock = 100, replicate 1) is reported as 45%; in test [3] (HGADFN003, relative to Mock = 100, replicate 2) it was 55%; in test [3] (HGADFN003, relative to Mock = 100, replicate 3), 50%. Also, the “γH2AX-53BP1 foci” value in test [3] (HGPS fibroblasts) is “lower level of γH2AX-53BP1 foci”. For the same substance, in test [4] (20 mg kg^–1 i.p. every other day), the “fibrosis, muscle” value was “decrease of fibrosis in the muscle”. For the same substance, in test [4] (20 mg kg^–1 i.p., replicate 1), the “fibrosis area/ total area, muscle” value is 0.003895 and 0.3895%. In addition, the “fibrosis area, muscle” value in test [4] (20 mg kg^–1 i.p., replicate 1, total area 340.18) amounted to 1.325; in test [4] (20 mg kg^–1 i.p., replicate 2, total area 353.151), 1.196; in test [4] (20 mg kg^–1 i.p., replicate 3, total area 365.081), 2.133.
